Settings: calcium acetate used in Example 1
Excerpt: In another preferred embodiment, the bulk density is between about 0.30 g/cc to about less than 0.55 g/cc. More preferably the bulk density is between about 0.30 g/cc to about 0.45 g/cc.

CC(=O)[O-].CC(=O)[O-].[Ca+2] [calcium acetate]
bulk density: 0.47 g/cc

From patent US10300020B2 (West-Ward Pharmaceuticals International Limited, priority 2005, dated 2019)
